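Following 48 hours of exposure in 96-well plates, responses at five concentrations were used to interpolate endpoints linearly. TGI: total growth inhibition.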
Key:
Test in all cases: NCI-60 cell line screen, 48 h
KM20L2 colon = test system: KM20L2 colon
DMS 273 small cell lung = test system: DMS 273 small cell lung
SNB-78 CNS = test system: SNB-78 CNS
XF 498 CNS = test system: XF 498 CNS
M19-MEL melanoma = test system: M19-MEL melanoma
LXFL 529 NSCLC = test system: LXFL 529 NSCLC
DMS 114 small cell lung = test system: DMS 114 small cell lung
HOP-18 NSCLC = test system: HOP-18 NSCLC
RXF-631 renal = test system: RXF-631 renal

Row | SMILES | TGI (KM20L2 colon) | TGI (DMS 273 small cell lung) | TGI (SNB-78 CNS) | TGI (XF 498 CNS) | TGI (M19-MEL melanoma) | TGI (LXFL 529 NSCLC) | TGI (DMS 114 small cell lung) | TGI (HOP-18 NSCLC) | TGI (RXF-631 renal)
1 | O=C1CCC(=O)N1Cc1ccccc1N=[N+]([O-])c1ccccc1CN1C(=O)CCC1=O | > 100 µM | > 100 µM | > 100 µM | > 100 µM | > 100 µM | > 100 µM | > 100 µM | – | –
2 | CC(=O)OC1COC(Nc2ccc(C(C)=O)cc2)C(OC(C)=O)C1OC(C)=O (stereo not given) | > 100 µM | > 100 µM | > 100 µM | – | > 100 µM | > 100 µM | > 100 µM | > 100 µM | > 100 µM
3 | COc1ccc(C(=O)Cc2c(C(=O)c3ccccc3)c3ccccc3n2C(=O)c2ccccc2)cc1 | > 100 µM | > 100 µM | – | > 100 µM | > 100 µM | > 100 µM | > 100 µM | – | –
4 | Nc1ccc2nc(Nc3ccc(F)cc3)cnc2c1 | – | > 100 µM | – | > 100 µM | > 100 µM | – | > 100 µM | – | –
5 | Clc1ccc2c(c1)C1C(CO2)C(c2ccccc2)=NN1c1ccccc1 (stereo not given) | > 100 µM | 88.7 µM | > 100 µM | 59 µM | > 100 µM | > 100 µM | 77.5 µM | 50.8 µM | –
6 | CCN=C(NNc1ccc([N+](=O)[O-])cc1)P(=O)(OC(C)C)OC(C)C | > 100 µM | > 100 µM | > 100 µM | > 100 µM | > 100 µM | > 100 µM | > 100 µM | – | –
7 | COC(=O)N1CCc2c(nc(N(C)CCO)[nH]c2=O)C1 | > 100 µM | > 100 µM | > 100 µM | > 100 µM | > 100 µM | > 100 µM | > 100 µM | > 100 µM | –
8 | NC(=O)C(N)=O | > 100 µM | > 100 µM | > 100 µM | > 100 µM | > 100 µM | > 100 µM | > 100 µM | > 100 µM | –
9 | CSc1nc(Cl)c(Br)c(Sc2nc(N)nc3nc[nH]c23)n1 | 18.8 µM | 15.6 µM | – | 30.1 µM | 23.4 µM | 18.7 µM | 18.9 µM | – | –
10 | CN(C(=O)C12C3C4C1C1C4(C(=O)C45C6C7C4C4C5C6C74C)C3C12C)C(C)(C)C (stereo not given) | 85.3 µM | > 100 µM | > 100 µM | > 100 µM | > 100 µM | > 100 µM | > 100 µM | – | > 100 µM

Reference: PubChem BioAssay (NCI)
